Experimental data reported in ChEMBL document CHEMBL5143671, “Discovery of (R)-(3-fluoropyrrolidin-1-yl)(6-((5-(trifluoromethyl)pyridin-2-yl)oxy)quinolin-2-yl)methanone (ABBV-318) and analogs as small molecule Nav1.7/ Nav1.8 blockers for the treatment of pain” (Bioorg Med Chem, 2022).
≈ marks a conversion by molar mass, not a printed value.

Tests used:
[1] = in vivo; conditions: Sprague-Dawley, rat, po
[2] = physchem; conditions: phosphate buffer
[3] = in vitro; conditions: PAMPA
[4] = physchem; conditions: octanol/water
[5] = target: Voltage-gated inwardly rectifying potassium channel KCNH2 (Homo sapiens, UniProt Q12809);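 also: hERG channel blockade measured by electrophysiology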
[6] = in vivo; conditions: Sprague-Dawley, rat, po; remark: listed apart in the source
[7] = target: Sodium channel protein type 5 subunit alpha (Homo sapiens, UniProt Q14524)
[8] = tested on: MDR1; assay: in vitro; conditions: dog, MDCK-MDR1
[9] = in vitro; conditions: dog, MDCK
[10] = rat, microsomes, 0.5 h, 0.5 µM
[11] = human, microsomes, 0.5 h, 0.5 µM
[12] = in vivo; conditions: Sprague-Dawley, rat, iv
[13] = rat, in vivo, po
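For logD in this document: distribution coefficient quantified using high-throughput LC-MS.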
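For solubility in this document: determined using a high-throughput solubility method.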

Chain of Sodium channel protein type 5 subunit alpha (Q14524 whole entry): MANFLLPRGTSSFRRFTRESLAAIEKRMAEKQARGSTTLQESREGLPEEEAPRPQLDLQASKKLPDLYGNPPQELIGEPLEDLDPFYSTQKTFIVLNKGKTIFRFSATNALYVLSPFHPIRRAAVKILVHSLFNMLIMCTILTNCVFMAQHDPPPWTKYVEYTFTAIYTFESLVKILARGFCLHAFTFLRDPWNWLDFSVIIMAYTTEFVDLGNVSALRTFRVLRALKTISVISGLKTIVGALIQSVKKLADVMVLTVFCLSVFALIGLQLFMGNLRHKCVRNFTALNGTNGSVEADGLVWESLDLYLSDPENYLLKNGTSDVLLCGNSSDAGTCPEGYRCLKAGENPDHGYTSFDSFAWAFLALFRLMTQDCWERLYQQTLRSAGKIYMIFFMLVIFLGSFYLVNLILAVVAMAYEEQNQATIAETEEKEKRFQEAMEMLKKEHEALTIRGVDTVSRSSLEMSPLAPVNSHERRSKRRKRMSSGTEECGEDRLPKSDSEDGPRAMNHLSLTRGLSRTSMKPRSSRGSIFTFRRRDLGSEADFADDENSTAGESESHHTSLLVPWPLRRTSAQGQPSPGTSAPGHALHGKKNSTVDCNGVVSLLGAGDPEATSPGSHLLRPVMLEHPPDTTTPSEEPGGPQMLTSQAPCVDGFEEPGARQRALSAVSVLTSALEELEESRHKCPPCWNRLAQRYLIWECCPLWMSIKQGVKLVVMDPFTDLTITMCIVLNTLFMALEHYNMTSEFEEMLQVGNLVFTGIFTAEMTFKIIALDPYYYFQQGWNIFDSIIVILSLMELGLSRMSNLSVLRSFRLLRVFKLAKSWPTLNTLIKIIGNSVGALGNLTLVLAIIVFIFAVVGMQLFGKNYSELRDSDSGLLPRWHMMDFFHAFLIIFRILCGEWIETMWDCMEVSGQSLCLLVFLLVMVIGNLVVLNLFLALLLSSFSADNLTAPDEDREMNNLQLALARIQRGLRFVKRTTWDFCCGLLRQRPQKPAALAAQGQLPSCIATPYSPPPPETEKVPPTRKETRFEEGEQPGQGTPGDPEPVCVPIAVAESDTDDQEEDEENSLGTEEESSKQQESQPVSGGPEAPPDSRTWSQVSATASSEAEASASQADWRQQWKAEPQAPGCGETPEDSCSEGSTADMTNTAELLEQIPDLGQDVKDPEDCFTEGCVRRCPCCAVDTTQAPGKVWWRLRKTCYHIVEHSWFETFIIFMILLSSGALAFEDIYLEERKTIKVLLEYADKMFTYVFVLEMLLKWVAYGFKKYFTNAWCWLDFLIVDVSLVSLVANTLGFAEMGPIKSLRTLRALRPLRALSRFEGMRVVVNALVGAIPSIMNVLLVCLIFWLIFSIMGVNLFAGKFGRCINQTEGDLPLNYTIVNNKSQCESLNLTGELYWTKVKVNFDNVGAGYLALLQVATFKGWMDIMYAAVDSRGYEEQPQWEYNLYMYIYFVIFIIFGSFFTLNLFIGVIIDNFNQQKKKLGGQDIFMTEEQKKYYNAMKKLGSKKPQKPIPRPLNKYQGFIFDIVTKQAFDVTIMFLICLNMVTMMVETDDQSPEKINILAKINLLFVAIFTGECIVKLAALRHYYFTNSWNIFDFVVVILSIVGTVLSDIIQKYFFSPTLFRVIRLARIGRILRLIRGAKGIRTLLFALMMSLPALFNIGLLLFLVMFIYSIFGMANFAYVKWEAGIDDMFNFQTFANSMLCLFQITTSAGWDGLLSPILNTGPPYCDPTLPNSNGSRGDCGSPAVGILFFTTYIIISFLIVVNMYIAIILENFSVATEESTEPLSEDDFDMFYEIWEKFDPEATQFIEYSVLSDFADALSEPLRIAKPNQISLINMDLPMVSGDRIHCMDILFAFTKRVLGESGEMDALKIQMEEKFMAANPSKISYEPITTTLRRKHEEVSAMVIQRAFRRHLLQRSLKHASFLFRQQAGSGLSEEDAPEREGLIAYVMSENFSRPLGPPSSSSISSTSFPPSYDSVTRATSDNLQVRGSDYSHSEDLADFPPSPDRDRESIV
Chain of Voltage-gated inwardly rectifying potassium channel KCNH2 (Q12809 whole entry): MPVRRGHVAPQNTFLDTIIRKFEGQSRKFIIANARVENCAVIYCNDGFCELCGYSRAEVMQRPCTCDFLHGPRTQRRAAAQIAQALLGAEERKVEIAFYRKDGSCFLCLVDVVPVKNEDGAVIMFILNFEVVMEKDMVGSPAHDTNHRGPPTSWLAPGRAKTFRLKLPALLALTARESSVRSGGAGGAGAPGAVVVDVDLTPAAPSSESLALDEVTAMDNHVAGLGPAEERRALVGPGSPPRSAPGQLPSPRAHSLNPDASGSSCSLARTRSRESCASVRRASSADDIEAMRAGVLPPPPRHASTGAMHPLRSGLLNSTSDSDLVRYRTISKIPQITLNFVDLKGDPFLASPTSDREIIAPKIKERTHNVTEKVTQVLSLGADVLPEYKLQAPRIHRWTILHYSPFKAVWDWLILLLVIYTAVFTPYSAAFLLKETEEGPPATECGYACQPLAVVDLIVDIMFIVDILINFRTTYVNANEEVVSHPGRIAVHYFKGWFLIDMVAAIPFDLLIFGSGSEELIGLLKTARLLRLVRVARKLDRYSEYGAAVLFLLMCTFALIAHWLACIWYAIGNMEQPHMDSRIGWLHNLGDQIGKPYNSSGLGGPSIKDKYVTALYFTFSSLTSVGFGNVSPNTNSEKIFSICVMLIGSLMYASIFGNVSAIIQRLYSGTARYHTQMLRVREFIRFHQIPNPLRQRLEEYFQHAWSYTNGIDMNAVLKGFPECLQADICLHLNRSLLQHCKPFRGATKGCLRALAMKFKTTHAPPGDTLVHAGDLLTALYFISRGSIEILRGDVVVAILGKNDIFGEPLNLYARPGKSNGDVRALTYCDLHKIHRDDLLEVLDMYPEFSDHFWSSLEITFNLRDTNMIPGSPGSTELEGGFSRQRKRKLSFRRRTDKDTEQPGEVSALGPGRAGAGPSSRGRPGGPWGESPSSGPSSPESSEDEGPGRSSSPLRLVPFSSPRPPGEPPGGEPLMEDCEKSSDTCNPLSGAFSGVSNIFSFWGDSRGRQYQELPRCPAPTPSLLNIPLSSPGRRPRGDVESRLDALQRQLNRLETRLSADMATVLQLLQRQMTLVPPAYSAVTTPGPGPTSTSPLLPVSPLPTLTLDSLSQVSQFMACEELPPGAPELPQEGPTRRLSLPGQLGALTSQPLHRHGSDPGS

Row | SMILES | solubility [2] [µM] | Papp [3] [×10⁻⁶ cm/s] | logD [4] | IC50 [5] [µM] | IC50 [7] [µM] | Papp [9] [×10⁻⁶ cm/s] | CLH [10] [mL/min/kg] | CLH [11] [mL/min/kg] | other results
1 | O=C(c1ccc2cc(Oc3ccc(OC(F)(F)F)cn3)ccc2n1)N1CCNCC1 | 150 (≈ 62.8 µg/mL) | 5.1 | 3.4 | 12.8 |  |  |  |  | bioavailability [1]: 92%; half-life [6]: 12.6 h
2 | CS(=O)(=O)C1CN(C(=O)c2ccc3cc(Oc4ccc(C(F)(F)F)cn4)ccc3n2)C1 | 18 (≈ 8.13 µg/mL) | 21.5 |  |  |  |  |  |  | bioavailability [1]: 126%; half-life [6]: 3.4 h
3 | O=C(NC1CC(F)(F)C1)c1ccc2cc(Oc3ccc(C(F)(F)F)cn3)ccc2n1 | 5 (≈ 2.12 µg/mL) | 12.1 |  |  | 33 |  |  |  | bioavailability [1]: 82%
4 | O=C(c1ccc2cc(Oc3ccc(S(=O)(=O)C(F)(F)F)cc3)ccc2n1)N1CCNCC1 | 150 (≈ 69.8 µg/mL) | 0.8 | 3.8 | 4.27 |  |  |  |  | efflux ratio [8]: 45.5
5 | N#Cc1ccc(Oc2ccc3nc(OCC(=O)N4CCNC(=O)C4)ccc3c2)cc1 | 141 (≈ 56.7 µg/mL) |  | 3.1 |  |  | 32.1 | < 50 | < 33 | 
6 | O=C1CN(C(=O)COc2ccc3cc(Oc4ccccn4)ccc3n2)CCN1 | 200 (≈ 75.7 µg/mL) |  |  | 30 |  | 22 | < 65 | 65 | 
7 | O=C(c1ccc2cc(Oc3ccc(C(F)(F)F)cn3)ccc2n1)N1CC(F)(F)C1 | 5 (≈ 2.05 µg/mL) | 3.04 |  |  | 10.2 |  |  |  | 
8 | N#Cc1ccc(-c2ccc3c(ccc(=O)n3CCN3CCCCC3)c2)cc1 |  | 8.3 |  | < 1 |  |  | 100 | 33 | 
9 | CN1CCN(C(=O)c2ccc3cc(Oc4ccccn4)ccc3n2)CC1 | 200 (≈ 69.7 µg/mL) |  | 1.1 | 16.8 |  | 8 |  |  | clearance [12]: 70 mL/min/kg
10 | O=C(c1ccc2cc(Oc3ccc(C(F)(F)F)cn3)ccc2n1)N1CC[C@H](F)C1 | 55 (≈ 22.3 µg/mL) | 31.6 |  |  | 33 |  |  |  | bioavailability [1]: 104%; Vdss [13]: 6.47 L/kg; clearance [12]: 12.8 mL/min/kg; half-life [6]: 3.67 h
11 | N#Cc1ccc(Oc2ccc3nc(OCCN4CCCCC4)ccc3c2)cc1 |  |  | 3.5 | < 1 |  |  | 217 | 50 | 
12 | O=C(c1ccc2cc(Oc3ccc(C(F)(F)F)cn3)ccc2n1)N1CCN(CC(F)(F)F)CC1 | 46 (≈ 22.3 µg/mL) |  |  |  | 33 | 24.6 |  |  | 
13 | O=C(N[C@@H]1CCOC1=O)c1ccc2cc(Oc3ccc(C(F)(F)F)cn3)ccc2n1 | 5 (≈ 2.09 µg/mL) | 32.7 |  |  | 33 |  |  |  | 
14 | O=C(c1ccc2cc(Oc3ccc(F)cn3)ccc2n1)N1CCNCC1 | 150 (≈ 52.9 µg/mL) |  |  | 17 |  |  |  |  | 
15 | O=C(c1ccc2cc(Oc3cccc(C(F)(F)F)n3)ccc2n1)N1CCNCC1 | 200 (≈ 80.5 µg/mL) |  | 3 | 12.8 |  | 52.2 |  |  | clearance [12]: 83.3 mL/min/kg
16 | O=C(NC1CC(F)C1)c1ccc2cc(Oc3ccc(C(F)(F)F)cn3)ccc2n1 (stereo unspecified) | 5 (≈ 2.03 µg/mL) | 16.7 |  |  | 33 |  |  |  | 
17 | O=C(c1ccc2cc(Oc3ccc(C(F)(F)F)cn3)ccc2n1)N1CCC1 |  |  |  |  | 33 |  |  |  | 
18 | O=C(COc1ccc2cc(Oc3ccc(C(F)(F)F)cn3)ccc2n1)N1CCCCC1 | 48 (≈ 20.7 µg/mL) |  |  |  |  | 38.6 | 917 | 233 | 
19 | CN1CCN(C(=O)COc2ccc3cc(Oc4ccc(C(F)(F)F)cn4)ccc3n2)CC1 | 200 (≈ 89.3 µg/mL) |  |  |  |  |  | 967 | 100 | 

Row | SMILES | solubility [2] [µM] | Papp [3] [×10⁻⁶ cm/s] | logD [4] | IC50 [5] [µM] | IC50 [7] [µM] | Papp [9] [×10⁻⁶ cm/s] | CLH [10] [mL/min/kg] | CLH [11] [mL/min/kg] | other results
20 | O=C(COc1ccc2cc(Oc3ccccn3)ccc2n1)N1CCNCC1 | 200 (≈ 72.9 µg/mL) |  | 2.7 |  |  | 29.4 | 200 | 183 | 
21 | O=C(c1ccc2cc(Oc3ncc(C(F)(F)F)cn3)ccc2n1)N1CCNCC1 | 138 (≈ 55.7 µg/mL) | 1.5 | 2.1 |  |  |  |  |  | 
22 | O=C(c1ccc2cc(Oc3ccc(C(F)(F)F)cc3)ccc2n1)N1CCNCC1 | 140 (≈ 56.2 µg/mL) | 2.1 | 4 | 5.91 |  |  |  |  | efflux ratio [8]: 3.7
23 | N#Cc1ccc(Oc2ccc3nc(OCC(=O)NCC(N)=O)ccc3c2)cc1 | 0.824 (≈ 0.31 µg/mL) |  | 3 | > 30 |  | 12.8 | < 50 | 33 | efflux ratio [8]: 14.9
24 | NC(=O)CNC(=O)COc1ccc2cc(Oc3ccccn3)ccc2n1 | 57.5 (≈ 20.3 µg/mL) |  | 2.2 | 30 |  | 8.7 | < 45 | 33 | 
25 | O=C(c1ccc2cc(Oc3ccc(C(F)(F)F)cn3)ccc2n1)N1CCNC(C(F)(F)F)C1 (stereo unspecified) | 78 (≈ 36.7 µg/mL) | 24.3 |  |  | 33 |  |  |  | bioavailability [1]: 106%; Vdss [13]: 9.23 L/kg; clearance [12]: 40.5 mL/min/kg; half-life [6]: 3.17 h
26 | O=C(c1ccc2cc(Oc3cc(C(F)(F)F)ccn3)ccc2n1)N1CCNCC1 | 200 (≈ 80.5 µg/mL) |  | 3.4 | 7.3 |  | 49 |  |  | bioavailability [1]: 91%; clearance [12]: 115 mL/min/kg
27 | N#Cc1ccc(Oc2ccc3nc(OCC(=O)N4CCOCC4)ccc3c2)cc1 |  |  | 3.4 |  |  | 30.1 | < 50 | 50 | 
28 | O=C1CN(C(=O)COc2ccc3cc(Oc4ccc(C(F)(F)F)cn4)ccc3n2)CCN1 | 23 (≈ 10.3 µg/mL) |  | 3.2 |  |  | 44.1 | < 61.7 | < 56.7 | 
29 | N#Cc1ccc(COc2ccc3nc(C(=O)N4CCNCC4)ccc3c2)cc1 | 143 (≈ 53.3 µg/mL) | 2.7 | 2.9 | 5.61 |  |  |  |  | efflux ratio [8]: 23.4
30 | O=C(NC1CCC1)c1ccc2cc(Oc3ccc(C(F)(F)F)cn3)ccc2n1 | 5 (≈ 1.94 µg/mL) | 3.4 |  |  | 31.3 |  |  |  | 
31 | O=C(NC1CCOC1)c1ccc2cc(Oc3ccc(C(F)(F)F)cn3)ccc2n1 (stereo unspecified) |  |  |  |  | 33 |  |  |  | 
32 | O=C(c1ccc2cc(Oc3cnc(C(F)(F)F)cn3)ccc2n1)N1CCNCC1 | 149 (≈ 60.1 µg/mL) | 3.8 | 2.7 | 18.6 |  |  |  |  | efflux ratio [8]: 16.1
33 | N#Cc1ccc(-c2ccc3c(ccc(=O)n3CC(=O)N3CCCCC3)c2)cc1 |  | 16.1 |  | 17 |  |  | 100 | 33 | 
34 | CC(=O)c1ccc(Oc2ccc3nc(C(=O)N4CCNCC4)ccc3c2)cc1 | 145 (≈ 54.4 µg/mL) |  | 3.1 | 23.6 |  | 19.7 |  |  | bioavailability [1]: 54%; half-life [6]: 3.3 h
35 | N#Cc1ccc(Oc2ccc3nc(C(=O)N4CCNCC4)ccc3c2)cc1 | 194 (≈ 69.5 µg/mL) |  | 2.6 | 5.2 |  | 0.4 |  |  | bioavailability [1]: 89%; clearance [12]: < 33.3 mL/min/kg
36 | O=C(N[C@H]1C[C@@H](O)C1)c1ccc2cc(Oc3ccc(C(F)(F)F)cn3)ccc2n1 | 10 (≈ 4.03 µg/mL) | 19.5 |  |  | 33 |  |  |  | bioavailability [1]: 23%; clearance [12]: 60.3 mL/min/kg
37 | O=C(COc1ccc2cc(Oc3ccccn3)ccc2n1)N1CCCCC1 | 156 (≈ 56.7 µg/mL) |  | 3.6 | 30 |  | 66.9 | 2400 | 100 | 
38 | O=C(c1ccc2cc(Oc3ccc(C(F)(F)F)cn3)ccc2n1)N1CCCC1 |  |  |  |  | 33 |  |  |  | 
